Drawing on ChEMBL document CHEMBL4765228, “Indole-like Trk receptor antagonists” (Eur J Med Chem, 2016), this text covers Activity for six molecules.

Experiment [1] has as its target T1, Serine/threonine-protein kinase 3 (Homo sapiens) (UniProt Q13188).
T1 sequence (whole entry): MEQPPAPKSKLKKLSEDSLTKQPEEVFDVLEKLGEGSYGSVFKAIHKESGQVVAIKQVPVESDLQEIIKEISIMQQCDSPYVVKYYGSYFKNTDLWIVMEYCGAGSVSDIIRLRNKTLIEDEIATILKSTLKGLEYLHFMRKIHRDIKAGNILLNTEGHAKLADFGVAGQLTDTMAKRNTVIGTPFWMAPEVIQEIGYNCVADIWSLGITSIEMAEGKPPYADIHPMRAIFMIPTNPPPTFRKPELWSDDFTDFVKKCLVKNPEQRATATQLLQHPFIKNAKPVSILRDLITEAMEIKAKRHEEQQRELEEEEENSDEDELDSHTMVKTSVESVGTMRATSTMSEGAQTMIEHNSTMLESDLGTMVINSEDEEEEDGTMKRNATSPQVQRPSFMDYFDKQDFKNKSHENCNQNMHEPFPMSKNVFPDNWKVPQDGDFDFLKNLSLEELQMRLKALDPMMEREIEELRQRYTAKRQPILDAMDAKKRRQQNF
As to the kind of experiment: Inhibition of human MST2 assessed as residual activity at 0.1 uM relative to control.

The target in experiment [2] is 5'-AMP-activated protein kinase catalytic subunit alpha-1 (Homo sapiens) (UniProt Q13131). Put plainly: Inhibition of human AMPKalpha1 (1 to 550 residues assessed as residual activity at 0.1 uM relative to control.
Experiment [3] concerns the target Calcium/calmodulin-dependent protein kinase type 1D (Homo sapiens) (UniProt Q8IU85). As to the kind of experiment: Inhibition of human CAMK1D assessed as residual activity at 1 uM relative to control.
Experiment [4] concerns the target Vascular endothelial growth factor receptor 1 (Homo sapiens) (UniProt P17948). Put plainly: Inhibition of human VEGFR1 assessed as residual activity at 0.1 uM relative to control.
Experiment [5] addresses Mitogen-activated protein kinase 14 (Homo sapiens) (UniProt Q16539). As to the kind of experiment: Inhibition of human p38-alpha assessed as residual activity at 0.1 uM relative to control.
For experiment [6], the target named is Glycogen synthase kinase-3 beta (Homo sapiens) (UniProt P49841). As to the kind of experiment: Inhibition of human GSK3-beta assessed as residual activity at 0.1 uM relative to control.
Chain of Glycogen synthase kinase-3 beta (Homo sapiens) (P49841 whole entry, looked up): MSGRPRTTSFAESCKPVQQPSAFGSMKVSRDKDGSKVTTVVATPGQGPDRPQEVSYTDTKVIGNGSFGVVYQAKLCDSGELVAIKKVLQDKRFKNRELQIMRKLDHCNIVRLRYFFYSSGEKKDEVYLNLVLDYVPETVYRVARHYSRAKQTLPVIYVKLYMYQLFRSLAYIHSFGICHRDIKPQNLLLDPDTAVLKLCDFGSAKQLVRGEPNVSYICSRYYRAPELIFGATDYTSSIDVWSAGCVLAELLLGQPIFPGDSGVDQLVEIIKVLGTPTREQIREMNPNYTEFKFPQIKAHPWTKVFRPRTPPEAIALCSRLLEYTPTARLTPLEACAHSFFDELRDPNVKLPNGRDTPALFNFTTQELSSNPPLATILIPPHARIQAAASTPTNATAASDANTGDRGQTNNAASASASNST
Experiment [7] has as its target Dual specificity mitogen-activated protein kinase kinase 1 (Homo sapiens) (UniProt Q02750). As to the kind of experiment: Inhibition of human wild type MEK1 assessed as residual activity at 1 uM relative to control.
The target in experiment [8] is Ephrin type-A receptor 2 (Homo sapiens) (UniProt P29317). As to the kind of experiment: Inhibition of human EPHA2 assessed as residual activity at 1 uM relative to control.
The target of experiment [9] is Serine/threonine-protein kinase pim-1 (Homo sapiens) (UniProt P11309). As to the kind of experiment: Inhibition of human PIM1 assessed as residual activity at 1 uM relative to control.
Chain of Serine/threonine-protein kinase pim-1 (Homo sapiens) (P11309 whole entry, looked up): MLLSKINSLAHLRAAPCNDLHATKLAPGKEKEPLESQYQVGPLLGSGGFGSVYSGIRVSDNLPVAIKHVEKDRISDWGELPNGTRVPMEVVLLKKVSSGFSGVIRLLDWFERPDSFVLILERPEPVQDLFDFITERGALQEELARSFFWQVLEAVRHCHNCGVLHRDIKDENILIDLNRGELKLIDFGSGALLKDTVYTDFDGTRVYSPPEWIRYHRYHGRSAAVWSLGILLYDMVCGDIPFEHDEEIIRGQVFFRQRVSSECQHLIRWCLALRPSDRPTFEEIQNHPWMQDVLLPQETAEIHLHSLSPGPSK
Experiment [10] deals with Ephrin type-A receptor 2 (Homo sapiens) (UniProt P29317). As to the kind of experiment: Inhibition of human EPHA2 assessed as residual activity at 0.1 uM relative to control.
The target in experiment [11] is Dual specificity tyrosine-phosphorylation-regulated kinase 1A (Homo sapiens) (UniProt Q13627). Put plainly: Inhibition of human DYRK1A assessed as residual activity at 0.1 uM relative to control.
Experiment [12] deals with Rho-associated protein kinase 2 (Homo sapiens) (UniProt O75116). Put plainly: Inhibition of human ROCK2 assessed as residual activity at 0.1 uM relative to control.
The target of experiment [13] is Tyrosine-protein kinase BTK (Homo sapiens) (UniProt Q06187). As to the kind of experiment: Inhibition of human BTK assessed as residual activity at 1 uM relative to control.
Chain of Tyrosine-protein kinase BTK (Homo sapiens) (Q06187 whole entry): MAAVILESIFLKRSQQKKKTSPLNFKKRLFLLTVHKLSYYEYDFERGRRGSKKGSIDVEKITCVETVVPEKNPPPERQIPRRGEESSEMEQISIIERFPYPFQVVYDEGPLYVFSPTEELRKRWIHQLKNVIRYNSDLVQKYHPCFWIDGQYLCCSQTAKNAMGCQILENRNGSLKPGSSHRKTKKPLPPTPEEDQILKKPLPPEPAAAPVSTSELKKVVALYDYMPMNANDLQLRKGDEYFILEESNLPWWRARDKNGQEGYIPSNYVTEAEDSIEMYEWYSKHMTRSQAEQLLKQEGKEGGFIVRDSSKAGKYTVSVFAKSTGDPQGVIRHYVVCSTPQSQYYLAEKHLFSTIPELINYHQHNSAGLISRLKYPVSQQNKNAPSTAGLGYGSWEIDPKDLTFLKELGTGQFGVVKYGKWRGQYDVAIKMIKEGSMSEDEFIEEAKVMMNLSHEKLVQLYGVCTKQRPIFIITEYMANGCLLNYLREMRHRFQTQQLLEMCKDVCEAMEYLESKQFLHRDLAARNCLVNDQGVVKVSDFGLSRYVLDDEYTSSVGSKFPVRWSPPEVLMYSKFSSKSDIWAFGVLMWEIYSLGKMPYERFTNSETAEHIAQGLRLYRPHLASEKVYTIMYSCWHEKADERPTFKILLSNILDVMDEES
Experiment [14] addresses Calcium/calmodulin-dependent protein kinase type 1D (Homo sapiens) (UniProt Q8IU85). As to the kind of experiment: Inhibition of human CAMK1D assessed as residual activity at 0.1 uM relative to control.
Experiment [15] has as its target Proto-oncogene tyrosine-protein kinase Src (Homo sapiens) (UniProt P12931). As to the kind of experiment: Inhibition of human GST-HIS-tagged SRC assessed as residual activity at 1 uM relative to control.
For experiment [16], the target named is T2, Serine/threonine-protein kinase D1 (Homo sapiens) (UniProt Q15139).
T2 sequence (whole entry): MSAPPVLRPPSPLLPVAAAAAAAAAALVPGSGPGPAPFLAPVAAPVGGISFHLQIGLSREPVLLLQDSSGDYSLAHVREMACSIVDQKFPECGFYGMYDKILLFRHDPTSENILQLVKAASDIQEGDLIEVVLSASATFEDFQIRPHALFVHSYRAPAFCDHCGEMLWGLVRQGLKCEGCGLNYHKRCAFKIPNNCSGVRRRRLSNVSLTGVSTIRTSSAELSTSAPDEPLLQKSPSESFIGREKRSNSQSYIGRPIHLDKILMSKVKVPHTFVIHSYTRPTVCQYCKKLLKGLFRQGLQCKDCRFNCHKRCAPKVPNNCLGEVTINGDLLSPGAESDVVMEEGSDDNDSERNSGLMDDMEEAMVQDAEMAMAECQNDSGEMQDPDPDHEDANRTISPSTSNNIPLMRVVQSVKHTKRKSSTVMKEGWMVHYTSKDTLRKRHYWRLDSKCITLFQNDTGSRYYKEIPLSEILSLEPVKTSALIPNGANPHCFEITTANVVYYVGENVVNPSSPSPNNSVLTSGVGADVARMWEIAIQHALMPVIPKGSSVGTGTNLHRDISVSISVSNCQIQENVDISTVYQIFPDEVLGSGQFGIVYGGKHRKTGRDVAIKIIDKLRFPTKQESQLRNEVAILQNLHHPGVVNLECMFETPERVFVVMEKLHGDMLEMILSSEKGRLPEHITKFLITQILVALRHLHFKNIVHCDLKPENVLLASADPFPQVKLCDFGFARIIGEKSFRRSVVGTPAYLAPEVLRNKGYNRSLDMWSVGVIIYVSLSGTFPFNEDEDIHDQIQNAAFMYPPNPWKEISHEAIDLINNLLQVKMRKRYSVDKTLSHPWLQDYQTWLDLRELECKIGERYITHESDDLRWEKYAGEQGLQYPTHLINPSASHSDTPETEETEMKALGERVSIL
As to the kind of experiment: Inhibition of human PKCmu assessed as residual activity at 0.1 uM relative to control.

Experiment [17] deals with T1, Serine/threonine-protein kinase 3 (Homo sapiens). As to the kind of experiment: Inhibition of human MST2 assessed as residual activity at 1 uM relative to control.
Experiment [18] deals with 3-phosphoinositide-dependent protein kinase 1 (Homo sapiens) (UniProt O15530). As to the kind of experiment: Inhibition of human PDK1 assessed as residual activity at 1 uM relative to control.
Experiment [19] deals with Calcium/calmodulin-dependent protein kinase kinase 2 (Homo sapiens) (UniProt Q96RR4). Put plainly: Inhibition of human CAMKK2 assessed as residual activity at 0.1 uM relative to control.
Chain of Calcium/calmodulin-dependent protein kinase kinase 2 (Homo sapiens) (Q96RR4 2-588 limits assumed): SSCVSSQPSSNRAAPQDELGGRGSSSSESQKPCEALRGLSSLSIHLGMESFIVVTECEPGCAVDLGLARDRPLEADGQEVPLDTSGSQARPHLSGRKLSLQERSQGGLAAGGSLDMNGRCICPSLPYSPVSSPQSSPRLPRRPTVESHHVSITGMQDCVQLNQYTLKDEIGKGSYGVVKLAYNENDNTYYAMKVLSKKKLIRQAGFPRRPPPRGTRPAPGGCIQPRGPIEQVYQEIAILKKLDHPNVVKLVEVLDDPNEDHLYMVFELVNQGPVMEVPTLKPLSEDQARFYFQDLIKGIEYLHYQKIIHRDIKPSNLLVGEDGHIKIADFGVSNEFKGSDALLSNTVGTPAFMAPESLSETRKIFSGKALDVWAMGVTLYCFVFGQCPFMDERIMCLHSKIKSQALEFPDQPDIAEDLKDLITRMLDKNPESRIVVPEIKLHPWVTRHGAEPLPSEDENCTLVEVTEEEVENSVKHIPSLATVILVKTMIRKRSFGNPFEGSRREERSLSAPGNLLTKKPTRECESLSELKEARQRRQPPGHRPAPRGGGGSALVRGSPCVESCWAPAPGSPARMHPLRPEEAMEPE
The target in experiment [20] is Dual specificity mitogen-activated protein kinase kinase 1 (Homo sapiens) (UniProt Q02750). As to the kind of experiment: Inhibition of human wild type MEK1 assessed as residual activity at 0.1 uM relative to control.
Chain of Dual specificity mitogen-activated protein kinase kinase 1 (Homo sapiens) (Q02750 whole entry): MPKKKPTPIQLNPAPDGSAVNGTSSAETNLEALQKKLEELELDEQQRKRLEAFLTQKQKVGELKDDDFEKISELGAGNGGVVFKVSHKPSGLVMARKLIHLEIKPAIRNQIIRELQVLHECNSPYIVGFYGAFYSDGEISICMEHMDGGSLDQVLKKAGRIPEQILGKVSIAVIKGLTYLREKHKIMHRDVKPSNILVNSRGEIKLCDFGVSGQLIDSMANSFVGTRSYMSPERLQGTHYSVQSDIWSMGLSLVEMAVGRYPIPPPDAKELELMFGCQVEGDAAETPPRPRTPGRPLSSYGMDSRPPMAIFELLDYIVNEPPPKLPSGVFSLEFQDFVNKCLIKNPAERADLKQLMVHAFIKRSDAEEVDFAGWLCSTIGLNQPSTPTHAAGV
In experiment [21] the target is Receptor tyrosine-protein kinase erbB-4 (Homo sapiens) (UniProt Q15303). As to the kind of experiment: Inhibition of human ERBB4 assessed as residual activity at 0.1 uM relative to control.
Chain of Receptor tyrosine-protein kinase erbB-4 (Homo sapiens) (Q15303 whole entry): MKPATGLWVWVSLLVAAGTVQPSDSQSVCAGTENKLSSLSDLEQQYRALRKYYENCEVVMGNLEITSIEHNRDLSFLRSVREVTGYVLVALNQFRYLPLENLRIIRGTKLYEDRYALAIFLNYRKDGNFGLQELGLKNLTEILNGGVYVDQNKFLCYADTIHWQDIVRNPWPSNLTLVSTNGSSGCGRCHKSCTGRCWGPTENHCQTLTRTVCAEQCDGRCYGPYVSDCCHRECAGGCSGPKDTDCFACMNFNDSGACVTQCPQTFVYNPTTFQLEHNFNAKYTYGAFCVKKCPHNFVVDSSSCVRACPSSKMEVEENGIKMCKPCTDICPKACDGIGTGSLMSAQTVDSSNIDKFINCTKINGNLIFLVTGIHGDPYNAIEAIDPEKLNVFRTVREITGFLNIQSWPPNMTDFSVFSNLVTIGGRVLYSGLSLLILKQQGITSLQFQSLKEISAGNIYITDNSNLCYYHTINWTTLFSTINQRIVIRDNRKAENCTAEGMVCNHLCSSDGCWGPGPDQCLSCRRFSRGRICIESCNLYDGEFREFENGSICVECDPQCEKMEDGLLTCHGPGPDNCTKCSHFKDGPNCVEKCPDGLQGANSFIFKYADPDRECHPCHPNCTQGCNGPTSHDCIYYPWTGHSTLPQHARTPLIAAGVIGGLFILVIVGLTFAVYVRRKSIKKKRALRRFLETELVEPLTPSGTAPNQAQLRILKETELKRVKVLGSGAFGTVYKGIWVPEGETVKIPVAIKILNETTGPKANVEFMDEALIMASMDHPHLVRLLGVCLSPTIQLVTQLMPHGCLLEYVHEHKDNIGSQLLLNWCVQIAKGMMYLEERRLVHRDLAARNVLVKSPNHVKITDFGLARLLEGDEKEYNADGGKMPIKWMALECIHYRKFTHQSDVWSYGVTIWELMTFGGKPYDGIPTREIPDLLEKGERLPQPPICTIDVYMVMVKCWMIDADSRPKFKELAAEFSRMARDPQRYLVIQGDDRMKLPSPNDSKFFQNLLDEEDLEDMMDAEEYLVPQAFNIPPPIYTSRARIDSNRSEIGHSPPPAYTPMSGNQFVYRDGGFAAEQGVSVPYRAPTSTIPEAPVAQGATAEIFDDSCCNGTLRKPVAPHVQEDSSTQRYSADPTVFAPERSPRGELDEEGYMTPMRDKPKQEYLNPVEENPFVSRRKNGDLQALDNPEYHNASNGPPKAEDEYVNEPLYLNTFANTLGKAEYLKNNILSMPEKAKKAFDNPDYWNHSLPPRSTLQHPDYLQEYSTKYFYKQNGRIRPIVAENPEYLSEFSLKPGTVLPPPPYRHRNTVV

Chain of Calcium/calmodulin-dependent protein kinase type 1D (Homo sapiens) (Q8IU85 whole entry, looked up): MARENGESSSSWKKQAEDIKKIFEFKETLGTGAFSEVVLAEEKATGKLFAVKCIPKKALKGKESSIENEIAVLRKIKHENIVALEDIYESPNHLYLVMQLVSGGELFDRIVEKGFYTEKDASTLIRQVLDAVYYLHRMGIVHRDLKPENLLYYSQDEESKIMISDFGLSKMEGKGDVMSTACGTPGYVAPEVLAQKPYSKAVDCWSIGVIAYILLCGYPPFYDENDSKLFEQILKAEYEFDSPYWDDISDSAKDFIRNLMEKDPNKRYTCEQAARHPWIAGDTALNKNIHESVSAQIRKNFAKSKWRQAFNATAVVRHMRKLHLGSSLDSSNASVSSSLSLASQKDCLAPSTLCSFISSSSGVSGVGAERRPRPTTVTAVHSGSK
Chain of Mitogen-activated protein kinase 14 (Homo sapiens) (Q16539 whole entry): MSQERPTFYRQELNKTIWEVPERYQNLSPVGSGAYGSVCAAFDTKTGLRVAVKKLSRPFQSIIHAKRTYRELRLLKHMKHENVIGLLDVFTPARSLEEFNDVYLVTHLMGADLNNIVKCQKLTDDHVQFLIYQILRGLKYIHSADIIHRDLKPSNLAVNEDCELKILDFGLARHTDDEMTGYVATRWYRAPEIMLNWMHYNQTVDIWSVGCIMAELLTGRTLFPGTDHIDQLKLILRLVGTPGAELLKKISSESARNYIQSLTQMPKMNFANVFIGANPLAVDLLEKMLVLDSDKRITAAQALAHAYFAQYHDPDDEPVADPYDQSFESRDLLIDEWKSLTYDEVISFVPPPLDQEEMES
Chain of Proto-oncogene tyrosine-protein kinase Src (Homo sapiens) (P12931 2-536 limits assumed): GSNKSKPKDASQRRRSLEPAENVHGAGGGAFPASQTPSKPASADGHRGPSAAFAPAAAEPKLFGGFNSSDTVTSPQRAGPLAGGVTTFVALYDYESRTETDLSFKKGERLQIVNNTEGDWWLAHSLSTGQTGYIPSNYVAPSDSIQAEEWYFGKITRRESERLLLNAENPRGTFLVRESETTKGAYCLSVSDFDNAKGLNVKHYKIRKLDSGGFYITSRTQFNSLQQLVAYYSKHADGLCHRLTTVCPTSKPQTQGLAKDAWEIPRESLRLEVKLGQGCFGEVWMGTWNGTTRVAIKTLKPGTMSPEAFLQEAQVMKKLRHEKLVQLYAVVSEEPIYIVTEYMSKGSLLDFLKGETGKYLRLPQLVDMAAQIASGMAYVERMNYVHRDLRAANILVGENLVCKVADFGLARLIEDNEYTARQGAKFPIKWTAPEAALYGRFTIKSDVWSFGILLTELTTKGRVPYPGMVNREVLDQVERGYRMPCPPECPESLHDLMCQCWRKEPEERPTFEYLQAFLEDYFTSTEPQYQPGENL

For the molecule `COc1ccc2[nH]cc(/C=C3\C(=O)Nc4ccc(S(N)(=O)=O)cc43)c2c1`, the Activity was found to be 101% in experiment [1]; 101% in experiment [2]; 94% in experiment [3]; 96% in [4]; 102% in [5]; 103% in experiment [6]. The Activity in [7] came out at 72%; in experiment [8] it was 98%; in experiment [9], 79%; in experiment [10] it was 110%; in experiment [11] it was 105%; in [12], 101%. In addition, the Activity in experiment [13] stood at 91%; in experiment [14], 97%; in experiment [15], 74%; in experiment [16], 95%; in experiment [17], 64%; in experiment [18] it was 66%. Moreover, the Activity in [19] was found to be 83%; in experiment [20] it was 87%; in experiment [21] it was 94%.
`CNS(=O)(=O)c1ccc2c(c1)/C(=C/c1cn(C)c3ccc(OC)cc13)C(=O)N2`: the Activity came to 95% in experiment [1]; 104% in experiment [2]; 80% in experiment [3]; 91% in [4]; 102% in experiment [5]; 90% in experiment [6]. For the same molecule, the Activity in [7] is 93%; in experiment [8] it was 84%; in experiment [9], 88%; in experiment [10] it was 100%; in experiment [11], 89%; in experiment [12], 94%. The Activity in [13] worked out at 73%; in experiment [14], 90%; in [15] it was 73%; in experiment [16], 92%; in experiment [17] it was 77%; in experiment [18] it was 123%. The Activity came out at 56% in experiment [19], 104% in experiment [20] and 98% in [21].
In the case of `COc1ccc2c(c1)c(/C=C1\C(=O)Nc3ccc(S(N)(=O)=O)cc31)cn2C`, the Activity in experiment [1] worked out at 86%; in [2], 94%; in experiment [3], 97%; in experiment [4], 94%; in experiment [5], 106%; in [6] it was 93%. Further, the Activity was 71% in [7]; 89% in experiment [8]; 88% in experiment [9]; 98% in [10]; 101% in experiment [11]; 99% in [12]. The Activity in experiment [13] was 107%; in experiment [14], 84%; in [15] it was 91%; in experiment [16] it was 90%; in experiment [17] it was 84%; in experiment [18], 75%. The Activity in experiment [19] is 53%; in [20] it was 82%; in [21], 101%.
For the molecule `Cn1cc(/C=C2\C(=O)Nc3ccc(S(N)(=O)=O)cc32)c2ccccc21`, the Activity in [1] amounted to 91%; in [2], 83%; in experiment [3], 90%; in experiment [4], 82%; in [5], 107%; in experiment [6], 104%. For the same molecule, the Activity in [7] was found to be 59%; in experiment [8], 90%; in experiment [9], 93%; in [10], 99%; in experiment [11], 122%; in [12], 76%. In addition, the Activity in experiment [13] turned out to be 119%; in [14], 106%; in experiment [15], 108%; in [16], 95%; in [17], 62%; in [18], 70%. Also, the Activity in experiment [19] turned out to be 62%; in experiment [20] it was 67%; in [21] it was 94%.
`CN(C)S(=O)(=O)c1ccc2c(c1)/C(=C/c1cn(C)c3ccc(O)cc13)C(=O)N2`: the Activity in experiment [1] was determined as 98%; in experiment [2] it was 103%; in [3], 103%; in experiment [4], 100%; in experiment [5], 97%; in [6], 99%. In addition, the Activity in experiment [7] was determined as 98%; in [8], 98%; in experiment [9] it was 95%; in [10], 111%; in [11], 101%; in experiment [12] it was 79%. Also, the Activity in experiment [13] is 107%; in experiment [14] it was 100%; in experiment [15], 68%; in experiment [16] it was 99%; in experiment [17], 83%; in [18] it was 83%. Further, the Activity turned out to be 73% in [19], 107% in experiment [20] and 110% in experiment [21].
`COc1ccc2c(c1)c(/C=C1\C(=O)Nc3ccc(S(=O)(=O)N(C)C)cc31)cn2C`: the Activity came to 101% in experiment [1]; 98% in experiment [2]; 94% in experiment [3]; 96% in [4]; 95% in experiment [5]; 98% in [6]. In addition, the Activity in [7] turned out to be 97%; in [8] it was 89%; in experiment [9], 97%; in experiment [10], 106%; in experiment [11], 98%; in experiment [12] it was 92%. Besides, the Activity is 89% in experiment [13]; 99% in experiment [14]; 70% in experiment [15]; 89% in [16]; 104% in experiment [17]; 84% in [18]. The results for the Activity in experiment [19], in experiment [20] and in [21] were 76%, 104% and 103%, respectively.
